We go through one compound from patent US7196117B2, “Use of cationic surfactant as activity enhancer in deodorants and oral care” (Laboratorios Miret, S.A., priority 2001, dated 2007).

One data set is described as follows: metabolism in rats. The class given is in vivo.
Another data set in a line: toxicological studies. The conditions noted are these: animals and humans. In kind it is in vivo.

Take `CCCCCCCCCCCC(=O)N[C@@H](CCCN=C(N)N)C(=O)OCC.Cl` [LAE, ethyl ester of the lauramide of the arginine monohydrochloride]: the absorption and metabolism result in “metabolism in rats” was “fast absorption and metabolism into naturally-occurring amino acids and the fatty acid lauric acid”. In “toxicological studies”, the toxicity entry is “completely harmless to animals and humans”.
